# Measurements as given in patent publication US8664257B2, “Oxygen-substituted 3-heteroaroylamino-propionic acid derivatives and their use as pharmaceuticals” (Sanofi, priority 2010, dated 2014).
# Molecular target: T1, Recombinant human cathepsin A (Homo sapiens, UniProt P10619)
# T1 construct: Recombinant human cathepsin A (residues 29-480, with a C-terminal 10-His tag); 10-His (C); purchased R&D Systems 1049-SE
# T1 sequence (P10619 29-312 limits assumed): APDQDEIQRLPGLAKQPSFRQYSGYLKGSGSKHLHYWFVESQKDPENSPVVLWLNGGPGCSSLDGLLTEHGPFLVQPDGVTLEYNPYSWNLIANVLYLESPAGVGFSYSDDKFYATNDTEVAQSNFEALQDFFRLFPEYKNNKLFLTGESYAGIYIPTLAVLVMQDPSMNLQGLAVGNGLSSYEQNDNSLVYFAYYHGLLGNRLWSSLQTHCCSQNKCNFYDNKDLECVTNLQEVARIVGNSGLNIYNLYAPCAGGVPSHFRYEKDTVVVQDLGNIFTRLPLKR
# T1 sequence (P10619 327-480 limits assumed): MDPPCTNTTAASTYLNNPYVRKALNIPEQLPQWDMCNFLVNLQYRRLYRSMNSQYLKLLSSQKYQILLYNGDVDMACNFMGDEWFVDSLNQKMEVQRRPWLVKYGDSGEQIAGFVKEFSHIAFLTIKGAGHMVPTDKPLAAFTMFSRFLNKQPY
# Assay: Cathepsin A inhibitory activity
# Assay type: biochemical
# Conditions: pharmacological test "Cathepsin A inhibitory activity"; IC50 given as class A/B/C; read-out: Activity (2): Cathepsin A inhibitory activity, IC50 class
# Method in brief: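 Human cathepsin A (res. 29-480, C-His10) pre-activated with cathepsin L (MES pH 6.0, DTT, 15 min, 37 °C; quenched with 10 μM E-64). Enzyme (833 ng/ml) preincubated 15 min RT with compound in MES pH 5.5/DTT, then 2 μM Bodipy FL-bradykinin for 15 min RT. Capillary electrophoresis product/substrate peak areas; IC50 from % inhibition.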
row,SMILES,IC50
1,O=C(O)CC(NC(=O)c1cc(O)n(-c2ccccc2)n1)c1cccc(Oc2ccc(Cl)cc2)c1 (stereo not drawn) [Example 173],1000 to 30000 nM
2,O=C(O)CC(NC(=O)c1cc(O)n(-c2ccc(F)cc2F)n1)c1cccc2c1OCO2 (stereo not drawn) [Example 174],100 to 1000 nM
3,O=C(O)C[C@H](NC(=O)c1cc(O)n(-c2ccc(F)cc2F)n1)c1ccccc1Br [Example 175],100 to 1000 nM
4,N#Cc1ccc([C@H](CC(=O)O)NC(=O)c2cc(O)n(-c3ccc(F)cc3F)n2)cc1 [Example 176],100 to 1000 nM
5,COc1ccccc1[C@H](CC(=O)O)NC(=O)c1cc(O)n(-c2ccc(F)cc2F)n1 [Example 177],100 to 1000 nM
6,COc1ccc(Cl)cc1C(CC(=O)O)NC(=O)c1cc(O)n(-c2ccc(F)cc2F)n1 (stereo not drawn) [Example 178],1000 to 30000 nM
7,COc1ccc(C(CC(=O)O)NC(=O)c2cc(O)n(-c3ccc(F)cc3F)n2)c(Cl)c1 (stereo not drawn) [Example 179],100 to 1000 nM
8,O=C(O)C[C@H](NC(=O)c1cc(O)n(-c2ccc(F)cc2F)n1)c1ccc(F)cc1 [Example 180],100 to 1000 nM
9,O=C(O)C[C@H](NC(=O)c1cc(O)n(-c2ccc(F)cc2F)n1)c1cccc(Cl)c1Cl [Example 181],< 100 nM
10,COc1cccc([C@H](CC(=O)O)NC(=O)c2cc(O)n(-c3ccc(F)cc3F)n2)c1 [Example 182],100 to 1000 nM
11,O=C(O)C[C@H](NC(=O)c1cc(O)n(-c2ccc(F)cc2F)n1)c1cccc(F)c1 [Example 183],100 to 1000 nM
12,O=C(O)C[C@H](NC(=O)c1cc(O)n(-c2ccc(F)cc2F)n1)c1cccc(Cl)c1 [Example 184],100 to 1000 nM
13,O=C(O)C[C@H](NC(=O)c1cc(O)n(-c2ccc(F)cc2F)n1)c1ccc(C(F)(F)F)cc1 [Example 185],100 to 1000 nM
14,O=C(O)CC(NC(=O)c1cc(O)n(-c2ccc(F)cc2F)n1)c1cccc(Cl)c1Cl (stereo not drawn) [Example 186],100 to 1000 nM
15,O=C(O)CC(NC(=O)c1cc(O)n(-c2ccc(F)cc2F)n1)c1ccc(OC(F)(F)F)cc1 (stereo not drawn) [Example 187],100 to 1000 nM
16,COc1ccccc1[C@@H](NC(=O)c1cc(O)n(-c2ccc(F)cc2F)n1)[C@@H](O)C(=O)O [Example 188],1000 to 30000 nM
17,COc1cccc([C@H](CC(=O)O)NC(=O)c2cc(O)n(-c3ccc(F)cc3F)n2)c1OC [Example 189],100 to 1000 nM
18,Cc1cccc([C@H](CC(=O)O)NC(=O)c2cc(O)n(-c3ccc(F)cc3F)n2)c1 [Example 190],100 to 1000 nM
19,Cc1cccc(C(CC(=O)O)NC(=O)c2cc(O)n(-c3ccc(F)cc3F)n2)c1C (stereo not drawn) [Example 191],< 100 nM
20,O=C(O)CC(NC(=O)c1cc(O)n(-c2ccc(F)cc2F)n1)c1cccc(Cl)c1F (stereo not drawn) [Example 192],100 to 1000 nM
21,O=C(O)CC(NC(=O)c1cc(O)n(-c2ccc(F)cc2F)n1)c1cccc(C(F)(F)F)c1Cl (stereo not drawn) [Example 193],100 to 1000 nM
22,CCc1ccc(C(CC(=O)O)NC(=O)c2cc(O)n(-c3ccc(F)cc3F)n2)cc1 (stereo not drawn) [Example 194],100 to 1000 nM
23,Cc1ccc(C(CC(=O)O)NC(=O)c2cc(O)n(-c3ccc(F)cc3F)n2)c(C)c1 (stereo not drawn) [Example 195],100 to 1000 nM

row,SMILES,IC50
1,Cc1cc(F)ccc1C(CC(=O)O)NC(=O)c1cc(O)n(-c2ccc(F)cc2F)n1 (stereo not drawn) [Example 196],< 100 nM
2,O=C(O)CC(NC(=O)c1cc(O)n(-c2ccc(F)cc2F)n1)c1ccc(-c2ccccc2)cc1 (stereo not drawn) [Example 197],100 to 1000 nM
3,O=C(O)C[C@H](NC(=O)c1cc(O)n(-c2ccc(F)cc2F)n1)c1ccccc1C(F)(F)F [Example 198],100 to 1000 nM
4,O=C(O)CC(NC(=O)c1cc(O)n(-c2ccc(F)cc2F)n1)c1ccc(Oc2ccccc2)cc1 (stereo not drawn) [Example 199],100 to 1000 nM
5,O=C(O)C[C@H](NC(=O)c1cc(O)n(-c2ccc(F)cc2F)n1)c1ccc(Cl)cc1 [Example 200],100 to 1000 nM
6,O=C(O)C[C@H](NC(=O)c1cc(O)n(-c2ccc(F)cc2F)n1)c1ccc(Cl)cc1Cl [Example 201],100 to 1000 nM
7,O=C(O)CC(NC(=O)c1cc(O)n(-c2ccc(F)cc2F)n1)c1ccc(-c2ccc(F)cc2)cc1 (stereo not drawn) [Example 202],100 to 1000 nM
8,COc1ccc(C(CC(=O)O)NC(=O)c2cc(O)n(-c3ccccc3Cl)n2)c(C)c1 (stereo not drawn) [Example 203],100 to 1000 nM
9,O=C(O)C[C@H](NC(=O)c1cc(O)n(-c2ccccc2Cl)n1)c1ccccc1Br [Example 204],100 to 1000 nM
10,N#Cc1cccc([C@H](CC(=O)O)NC(=O)c2cc(O)n(-c3ccccc3Cl)n2)c1 [Example 205],100 to 1000 nM
11,O=C(O)CC(NC(=O)c1cc(O)n(-c2ccccc2Cl)n1)c1cccc(C(F)(F)F)c1 (stereo not drawn) [Example 206],100 to 1000 nM
12,COc1ccc(C(CC(=O)O)NC(=O)c2cc(O)n(-c3ccccc3Cl)n2)c(OC)c1 (stereo not drawn) [Example 207],100 to 1000 nM
13,O=C(O)CC(NC(=O)c1cc(O)n(-c2ccccc2Cl)n1)c1ccccc1F (stereo not drawn) [Example 208],100 to 1000 nM
14,COc1ccc(Cl)cc1C(CC(=O)O)NC(=O)c1cc(O)n(-c2ccccc2Cl)n1 (stereo not drawn) [Example 209],100 to 1000 nM
15,COc1ccc(C(CC(=O)O)NC(=O)c2cc(O)n(-c3ccccc3Cl)n2)c(Cl)c1 (stereo not drawn) [Example 210],100 to 1000 nM
16,O=C(O)C[C@H](NC(=O)c1cc(O)n(-c2ccccc2Cl)n1)c1ccc(F)cc1 [Example 211],100 to 1000 nM
17,O=C(O)C[C@H](NC(=O)c1cc(O)n(-c2ccccc2Cl)n1)c1cccc(Cl)c1Cl [Example 212],< 100 nM
18,COc1cccc([C@H](CC(=O)O)NC(=O)c2cc(O)n(-c3ccccc3Cl)n2)c1 [Example 213],100 to 1000 nM
19,O=C(O)C[C@H](NC(=O)c1cc(O)n(-c2ccccc2Cl)n1)c1cccc(Cl)c1 [Example 214],100 to 1000 nM
20,O=C(O)CC(NC(=O)c1cc(O)n(-c2ccccc2Cl)n1)c1ccc(OC(F)(F)F)cc1 (stereo not drawn) [Example 215],100 to 1000 nM
21,COc1ccccc1[C@@H](NC(=O)c1cc(O)n(-c2ccccc2Cl)n1)[C@@H](O)C(=O)O [Example 216],1000 to 30000 nM
22,Cc1cccc([C@H](CC(=O)O)NC(=O)c2cc(O)n(-c3ccccc3Cl)n2)c1 [Example 217],100 to 1000 nM
23,O=C(O)C[C@H](NC(=O)c1cc(O)n(-c2ccccc2Cl)n1)c1cccc(C(F)(F)F)c1 [Example 218],100 to 1000 nM

row,SMILES,IC50
1,O=C(O)CC(NC(=O)c1cc(O)n(-c2ccccc2Cl)n1)c1ccc(-c2cccc(F)c2)cc1 (stereo not drawn) [Example 219],100 to 1000 nM
2,Cc1cccc(C(CC(=O)O)NC(=O)c2cc(O)n(-c3ccccc3Cl)n2)c1C (stereo not drawn) [Example 220],100 to 1000 nM
3,"O=C(O)CC(NC(=O)c1cc(O)n(-c2ccccc2Cl)n1)c1cccc(C(F)(F)F)c1F (stereo not drawn) [Example 221, 3-{[1-(2-Chloro-phenyl)-5-hydroxy-1H-pyrazole-3-carbonyl]-amino}-3-(2-fluoro-3-trifluoromethyl-phenyl)-propionic acid]",100 to 1000 nM
4,O=C(O)CC(NC(=O)c1cc(O)n(-c2ccccc2Cl)n1)c1cccc(Cl)c1F (stereo not drawn) [Example 222],100 to 1000 nM
5,O=C(O)CC(NC(=O)c1cc(O)n(-c2ccccc2Cl)n1)c1cccc(C(F)(F)F)c1Cl (stereo not drawn) [Example 223],100 to 1000 nM
6,CCc1ccc(C(CC(=O)O)NC(=O)c2cc(O)n(-c3ccccc3Cl)n2)cc1 (stereo not drawn) [Example 224],100 to 1000 nM
7,Cc1ccc(C(CC(=O)O)NC(=O)c2cc(O)n(-c3ccccc3Cl)n2)c(C)c1 (stereo not drawn) [Example 225],100 to 1000 nM
8,O=C(O)CC(NC(=O)c1cc(O)n(-c2ccccc2Cl)n1)c1ccc(-c2ccccc2)cc1 (stereo not drawn) [Example 226],100 to 1000 nM
9,O=C(O)CC(NC(=O)c1cc(O)n(-c2ccccc2Cl)n1)c1ccc(Cl)c(Cl)c1 (stereo not drawn) [Example 227],100 to 1000 nM
10,O=C(O)CC(NC(=O)c1cc(O)n(-c2ccccc2F)n1)c1cccc2c1OCO2 (stereo not drawn) [Example 228],100 to 1000 nM
11,O=C(O)CC(NC(=O)c1cc(O)n(-c2ccccc2F)n1)c1cccc(OCc2ccccc2)c1 (stereo not drawn) [Example 229],1000 to 30000 nM
12,N#Cc1cccc([C@H](CC(=O)O)NC(=O)c2cc(O)n(-c3ccccc3F)n2)c1 [Example 230],100 to 1000 nM
13,O=C(O)CC(NC(=O)c1cc(O)n(-c2ccccc2F)n1)c1cccc(C(F)(F)F)c1 (stereo not drawn) [Example 231],100 to 1000 nM
14,COc1ccc(C(CC(=O)O)NC(=O)c2cc(O)n(-c3ccccc3F)n2)c(OC)c1 (stereo not drawn) [Example 232],100 to 1000 nM
15,O=C(O)CC(NC(=O)c1cc(O)n(-c2ccccc2F)n1)c1ccccc1F (stereo not drawn) [Example 233],100 to 1000 nM
16,COc1ccc(Cl)cc1C(CC(=O)O)NC(=O)c1cc(O)n(-c2ccccc2F)n1 (stereo not drawn) [Example 234],100 to 1000 nM
17,COc1ccc(C(CC(=O)O)NC(=O)c2cc(O)n(-c3ccccc3F)n2)c(Cl)c1 (stereo not drawn) [Example 235],100 to 1000 nM
18,O=C(O)C[C@H](NC(=O)c1cc(O)n(-c2ccccc2F)n1)c1ccc(F)cc1 [Example 236],100 to 1000 nM
19,COc1cccc([C@H](CC(=O)O)NC(=O)c2cc(O)n(-c3ccccc3F)n2)c1 [Example 237],100 to 1000 nM
20,O=C(O)CC(NC(=O)c1cc(O)n(-c2ccccc2F)n1)c1ccc(C(F)(F)F)cc1F (stereo not drawn) [Example 238],100 to 1000 nM
21,O=C(O)CC(NC(=O)c1cc(O)n(-c2ccccc2F)n1)c1ccc(OC(F)(F)F)cc1 (stereo not drawn) [Example 239],100 to 1000 nM
22,COc1ccccc1[C@@H](NC(=O)c1cc(O)n(-c2ccccc2F)n1)[C@@H](O)C(=O)O [Example 240],1000 to 30000 nM

# Same assay, conditions: recombinant human cathepsin A 833 ng/ml, Bodipy FL-labeled bradykinin 2 μM, pH 5.5; read-out: CATH-A IC50
row,SMILES,IC50
1,"O=C(O)CC(NC(=O)c1cc(O)n(-c2ccccc2Cl)n1)c1cccc(C(F)(F)F)c1F (stereo not drawn) [Example 221, 3-{[1-(2-Chloro-phenyl)-5-hydroxy-1H-pyrazole-3-carbonyl]-amino}-3-(2-fluoro-3-trifluoromethyl-phenyl)-propionic acid]",322 nM
